{"source": "patent US9585933B2", "about": "“Therapeutic use of peptide inhibitors of NADPH oxidase; aerosolization as a delivery mechanism” (University of Pittsburgh—Of the Commonwealth System of …, priority 2011, dated 2017)", "key": {"[1]": {"target": "T1, Nox2 oxidase (COS-Nox2 lysate: Nox2, p22phox, p47phox, p67phox) (Homo sapiens, UniProt P14598)", "T1 construct": "host or cells: COS 7 cells, stably transfected; cell lysate used", "T1 sequence (P14598 1-390)": "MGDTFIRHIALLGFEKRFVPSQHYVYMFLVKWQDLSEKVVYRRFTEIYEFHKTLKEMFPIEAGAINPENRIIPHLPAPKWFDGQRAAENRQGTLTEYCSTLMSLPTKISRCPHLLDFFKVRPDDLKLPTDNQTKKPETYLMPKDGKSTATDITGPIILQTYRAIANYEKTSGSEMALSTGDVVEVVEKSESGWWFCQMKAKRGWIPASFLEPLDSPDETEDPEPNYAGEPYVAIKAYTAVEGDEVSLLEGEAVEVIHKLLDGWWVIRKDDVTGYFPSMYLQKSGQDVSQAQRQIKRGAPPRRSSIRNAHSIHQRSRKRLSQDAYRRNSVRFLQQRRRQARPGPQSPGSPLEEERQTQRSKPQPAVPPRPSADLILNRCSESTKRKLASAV", "experiment": "Cell-free SOD-inhibitable cytochrome c reduction assay, O2- production in COS-Nox2 lysates", "assay_type": "biochemical", "conditions": "for rate of O2- generation, SOD-inhibitable reduction of cytochrome c: 0 μM control 1.33±0.1", "description": "(§1) To test this hypothesis, the inhibitory activity of Nox2ds was assessed in cell-free assays using reconstituted systems expressing either Nox1, 2 or 4 oxidase. Nox 2 oxidase was recapitulated by stably transfecting COS 7 cells with Nox2, p22phox, p47phox, and p67phox (aka COS-Nox2). Nox1 oxidase was obtained by transfecting COS 7 cells with Nox1, p22phox, NOXO1 and NOXA1 (COS-Nox1), and Nox 4 oxidase was regenerated by transfection of COS 7 cells with Nox4 and p22phox. […] Our new data support selectivity of Nox2ds peptide in differentiating the contribution of Nox2 vs. Nox1 and Nox4 NADPH oxidase and its potential clinical use in ameliorating cardiopulmonary diseases.\nCOS-Nox2: COS 7 cells transfected with p22^phox, Nox2, p47^phox and p67^phox (M. Dinauer, Indiana University). (Price M O, McPhail L C, Lambeth J D, Han C H, Knaus U G, Dinauer M C. Blood. 2002 Apr. 15; 99(8):2653-61.)\nSuperoxide (O2^−) production was measured in COS-Nox1 and COS-Nox2 lysates by determining the rate of O2^− dismutase (SOD) inhibitable cytochrome c reduction and by electron paramagnetic resonance (EPR).\nCOS-Nox2, COS-Nox1/NOXO1/NOXA1, and COS-22 cells were suspended to a concentration of 5×10^7 cells/ml in ice-cold disruption buffer (8 mM potassium, sodium phosphate buffer, pH 7.0, 131 mM NaCl, 340 mM sucrose, 2 mM NaN3, 5 mM MgCl2, 1 mM EGTA, 1 mM EDTA, and protease inhibitor cocktail). The cells were lysed by five freeze/thaw cycles and passed through a 30-gauge needle five times to further lyse the cells. Cell disruption was confirmed by phase-contrast microscopy. The cell lysate was centrifuged at 1000 g for 10 min at 4° C. to remove unbroken cells, nuclei, and debris. Throughout all these procedures, extreme care was taken to maintain the lysate at a temperature close to 0° C. Superoxide production was calculated from the initial linear rate (over 10 min) of SOD-inhibitable cytochrome c reduction quantified at 550 nm using the extinction coefficient of 21.1 mM-1 cm-1 (Biotek Synergy 4 hybrid multimode microplate reader). The oxidase assay buffer consisted of 65 mM sodium phosphate buffer (pH 7.0), 1 mM EGTA, 10 μM FAD, 1 mM MgCl2, 2 mM NaN3, and 0.2 mM cytochrome c. The components of the cell-free system were added in the following order: oxidase assay buffer, cell lysate (5×10^5 cell equivalents/well), and Nox2ds/Scrmb Nox2ds peptides at a final concentration of 0.1, 0.3, 1.0, 3.0, and 10 μM. The plates were placed on an orbital shaker to mix contents for 5 min at 120 movements/min at room temperature. LIDS, an established lipid activator of phagocyte cell-free systems, was added at a concentration of 130 μM, and O2^− production was initiated by the addition of 180 μM NADPH. The concentration of Nox2ds peptide that caused 50% inhibition of O2^− production (IC50) in COS-Nox2 cell lysates was calculated by Prism 5 (GraphPad Software, La Jolla, Calif., USA).\nCytochrome C Assay. FIG. 3A. Rate of O2^− production in COS-Nox2 lysates pretreated with Nox2ds or scrambled control (Scrmb Nox2ds). O2^− production was initiated by the addition of NADPH and measured by the SOD-inhibitable cytochrome c reduction for 10 min."}, "[2]": {"target": "T2, Nox2 oxidase (COS-Nox2 lysate) (Homo sapiens, UniProt P14598)", "T2 construct": "host or cells: COS 7 cells, stably transfected; cell lysate used", "T2 sequence (P14598 1-390)": "T1 sequence (P14598 1-390)", "experiment": "EPR with spin probe CMH, O2- production in COS-Nox2 lysates", "assay_type": "biochemical", "conditions": "10 μM peptide, vehicle 36330±2658", "description": "as §1\nThe spin probe 1-hydroxy-3-methoxycarbonyl-2,2,5,5-tetramethylpyrrolidine hydrochloride (CMH; Alexis Corp., San Diego, Calif., USA) was used to examine O2^− production in COS-Nox2 cell lysates using a Bruker eScan table-top EPR spectrometer (Bruker Biospin, USA). Superoxide production was measured in oxidase assay buffer (65 mM sodium phosphate buffer, pH 7.0, 1 mM EGTA, 10 μM FAD, 1 mM MgCl2, 2 mM NaN3) supplemented with 50 μM CMH. […] Analyses of the EPR spectra peak heights were used to quantify the amount of O2^− produced by the lysates and were compared with buffer-only control spectra or spectra in the presence of 10 μM Nox2ds, 10 μM Scrmb Nox2ds, or 150 U/ml SOD. […]"}}, "note": "Where no end group is shown, it is not given here."}
{"substance": "CSTRVRRQL-NH2 [Nox2ds, CSTRVRRQL]", "values": [{"measurement": "rate of O2- generation, SOD-inhibitable reduction of cytochrome c", "setting": "[1]; 0.1 μM peptide", "value": "1.36±0.1 nmol O2^−/min/10^7 lysate-cell equivalents"}, {"measurement": "rate of O2- generation, SOD-inhibitable reduction of cytochrome c", "setting": "[1]; 0.3 μM peptide", "value": "1.05±0.2 nmol O2^−/min/10^7 lysate-cell equivalents"}, {"measurement": "rate of O2- generation, SOD-inhibitable reduction of cytochrome c", "setting": "[1]; 1 μM peptide", "value": "0.83±0.1 nmol O2^−/min/10^7 lysate-cell equivalents"}, {"measurement": "rate of O2- generation, SOD-inhibitable reduction of cytochrome c", "setting": "[1]; 3 μM peptide", "value": "0.82±0.1 nmol O2^−/min/10^7 lysate-cell equivalents"}, {"measurement": "rate of O2- generation, SOD-inhibitable reduction of cytochrome c", "setting": "[1]; 10 μM peptide", "value": "0.54±0.1 nmol O2^−/min/10^7 lysate-cell equivalents"}, {"measurement": "inhibition of Nox2-oxidase O2- production (in words)", "setting": "[1]; cytochrome c assay", "value": "concentration-dependently inhibited"}, {"measurement": "CM radical intensity (EPR, O2- production)", "setting": "[2]", "value": "18360±2666"}]}
